Our source for the IC50 values is patent US9388199B2, “Pyrrolidine derivatives and their use as complement pathway modulators” (priority 2012, dated 2016).

The IC50 is the midpoint of a concentration-inhibition curve.

Each structure is given as a SMILES string. Where a name gives a salt, the structure may show the parent alone.

Recombinant human factor D, sequence (P00746 26-253): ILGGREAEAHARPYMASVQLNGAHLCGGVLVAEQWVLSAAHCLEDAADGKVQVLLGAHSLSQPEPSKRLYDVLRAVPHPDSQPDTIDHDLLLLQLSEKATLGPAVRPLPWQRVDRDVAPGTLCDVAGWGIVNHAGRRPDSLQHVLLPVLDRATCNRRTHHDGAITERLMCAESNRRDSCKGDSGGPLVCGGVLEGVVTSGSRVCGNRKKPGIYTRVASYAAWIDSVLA

This test addresses Recombinant human factor D (Homo sapiens (Human), UniProt P00746). Kind of test: Human Complement Factor D Assay: Method 1. Type of test: biochemical. To be noted: 10 nM factor D, substrate Z-Lys-thiobenzyl, fluorescence readout, read-out: IC50 (μM), Factor D inhibition. The procedure: Human Complement Factor D Assay: Method 1
Recombinant human factor D (expressed in E. coli and purified using standard methods) at 10 nM concentration is incubated with test compound at various concentrations for 1 hour at room temperature in 0.1 M Hepes buffer, pH 7.5, containing 1 mM MgCl2, 1 M NaCl and 0.05% CHAPS. A synthetic substrate Z-Lys-thiobenzyl and 2,4-dinitrobenzenesulfonyl-fluoresceine are added to final concentrations of 200 μM and 25 μM, respectively. The increase in fluorescence is recorded at excitation of 485 nm and emission at 535 nm in a microplate spectrofluorimeter. IC50 values are calculated from percentage of inhibition of complement factor D-activity as a function of test compound concentration.
As for `CC(C)(C)CCNC(=O)[C@@H]1C[C@H]2C[C@H]2N1C(=O)Cn1nc(C(N)=O)c2ccccc21` [Example 1, 1-{2-[(1R,3S,5R)-3-(3,3-Dimethyl-butylcarbamoyl)-2-aza-bicyclo[3.1.0]hex-2-yl]-2-oxo-ethyl}-1H-indazole-3-carboxylic acid amide], the IC50 was 0.061 µM. As for `CC(=O)c1nn(CC(=O)N2[C@@H]3C[C@@H]3C[C@H]2C(=O)NCCCOC(F)(F)F)c2ccccc12` [Example 2, (1R,3S,5R)-2-[2-(3-Acetyl-indazol-1-yl)-acetyl]-2-aza-bicyclo[3.1.0]hexane-3-carboxylic acid (3-trifluoromethoxy-propyl)-amide], the figure is 0.605 µM; as for `CO[C@H]1[C@@H](C(=O)NCCC(C)(C)C)N(C(=O)Cn2nc(C(N)=O)c3ccccc32)C[C@@H]1F` [Example 3, 1-{2-[(2S,3S,4S)-2-(3,3-Dimethyl-butylcarbamoyl)-4-fluoro-3-methoxy-pyrrolidin-1-yl]-2-oxo-ethyl}-1H-indazole-3-carboxylic acid amide], 0.103 µM; as for `CO[C@H]1[C@@H](C(=O)NCCC(C)(C)C)N(C(=O)Cn2nc(C(N)=O)c3cc(C)ncc32)C[C@@H]1F` [Example 4, 1-{2-[(2S,3S,4S)-2-(3,3-Dimethyl-butylcarbamoyl)-4-fluoro-3-methoxy-pyrrolidin-1-yl]-2-oxo-ethyl}-5-methyl-1H-pyrazolo[3,4-c]pyridine-3-carboxylic acid amide], 0.161 µM. As for `CO[C@H]1[C@@H](C(=O)NCCC(C)(C)C)N(C(=O)Cn2nc(C(C)=O)c3ccccc32)C[C@@H]1F` [Example 5, (2S,3S,4S)-1-[2-(3-Acetyl-indazol-1-yl)-acetyl]-4-fluoro-3-methoxy-pyrrolidine-2-carboxylic acid (3,3-dimethyl-butyl)-amide], the figure is 0.088 µM.

For the molecule `CC(C)(C)CCNC(=O)[C@@H]1C[C@H]2C[C@H]2N1C(=O)Cn1nc(C(N)=O)c2ccncc21` [Example 6, 1-{2-[(1R,3S,5R)-3-(3,3-Dimethyl-butylcarbamoyl)-2-aza-bicyclo[3.1.0]hex-2-yl]-2-oxo-ethyl}-1H-pyrazolo[3,4-c] pyridine-3-carboxylic acid amide], the IC50 stood at 0.168 µM. As for `CC(=O)c1nn(CC(=O)N2[C@@H]3C[C@@H]3C[C@H]2C(=O)NCCC(C)(C)C)c2cnccc12` [Example 7, (1R,3S,5R)-2-[2-(3-Acetyl-pyrazolo[3,4-c]pyridin-1-yl)-acetyl]-2-aza-bicyclo[3.1.0] hexane-3-carboxylic acid (3,3-dimethyl-butyl)-amide], the figure is 0.068 µM; as for `CC(=O)c1nn(CC(=O)N2[C@@H]3C[C@@H]3C[C@H]2C(=O)NCCC(C)(C)C)c2ccc(OCc3ncccn3)cc12` [Example 8, (1R,3S,5R)-2-{2-[3-Acetyl-5-(pyrimidin-2-ylmethoxy)-indazol-1-yl]-acetyl}-2-aza-bicyclo[3.1.0]hexane-3-carboxylic acid (3,3-dimethyl-butyl)-amide], 0.009 µM; as for `C[Si](C)(C)CCNC(=O)[C@@H]1C[C@H]2C[C@H]2N1C(=O)Cn1nc(C(N)=O)c2ccncc21` [Example 9, 1-{2-Oxo-2-[(1R,3S,5R)-3-(2-trimethylsilanyl-ethylcarbamoyl)-2-aza-bicyclo[3.1.0]hex-2-yl)-ethyl}-1H-pyrazolo[3,4-c] pyridine-3-carboxylic acid amide], 0.153 µM.

Turning to `CC(C)(O)CCNC(=O)[C@@H]1C[C@H]2C[C@H]2N1C(=O)Cn1nc(C(N)=O)c2ccncc21` [Example 10, 1-{2-[(1R,3S,5R)-3-(3-Hydroxy-3-methyl-butylcarbamoyl)-2-aza-bicyclo[3.1.0]hex-2-yl]-2-oxo-ethyl}-1H-pyrazolo[3,4-c] pyridine-3-carboxylic acid amide trifluoroacetate], the IC50 was 5.67 µM. As for `CO[C@@H]1CN(C(=O)Cn2nc(C(N)=O)c3ccccc32)[C@H](C(=O)NCCC(C)(C)C)[C@H]1F` [Example 11, 1-{2-[(2R,3R,4R)-2-(3,3-Dimethyl-butylcarbamoyl)-3-fluoro-4-methoxy-pyrrolidin-1-yl]-2-oxo-ethyl}-1H-indazole-3-carboxylic acid amide], the IC50 amounted to 14.6 µM.

Regarding `CCNC(=O)[C@@H]1C[C@H]2C[C@H]2N1C(=O)Cn1nc(C(N)=O)c2ccncc21` [Example 12, 1-[2-((1R,3S,5R)-3-Ethylcarbamoyl-2-aza-bicyclo [3.1.0]hex-2-yl)-2-oxo-ethyl]-1H-pyrazolo[3,4-c]pyridine-3-carboxylic acid amide], the IC50 was found to be 7.22 µM.

As to `CCNC(=O)[C@@H]1C[C@H]2C[C@H]2N1C(=O)Cn1nc(C(C)=O)c2cc(OCc3ncccn3)ccc21` [Example 13, (1R,3S,5R)-2-{2-[3-Acetyl-5-(pyrimidin-2-ylmethoxy)-indazol-1-yl]-acetyl}-2-aza-bicyclo[3.1.0]hexane-3-carboxylic acid ethylamide], the IC50 came out at 0.504 µM. On to `CC(=O)c1nn(CC(=O)N2[C@@H]3C[C@@H]3C[C@H]2C(=O)NCCCOC(F)(F)F)c2ccc(OCc3ncccn3)cc12` [Example 14, (1R,3S,5R)-2-{2-[3-Acetyl-5-(pyrimidin-2-ylmethoxy)-indazol-1-yl]-acetyl}-2-aza-bicyclo[3.1.0]hexane-3-carboxylic acid (3-trifluoro methoxy-propyl)-amide], for which the 50% inhibitory concentration (IC50) worked out at 0.127 µM. For `CC(=O)c1nn(CC(=O)N2[C@@H]3C[C@@H]3C[C@H]2C(=O)NCCOC(F)(F)F)c2ccc(OCc3ncccn3)cc12` [Example 15, (1R,3S,5R)-2-{2-[3-Acetyl-5-(pyrimidin-2-ylmethoxy)-indazol-1-yl]-acetyl}-2-aza-bicyclo[3.1.0]hexane-3-carboxylic acid (2-trifluoro methoxy-ethyl)-amide] the value was 0.021 µM; for `CC(=O)c1nn(CC(=O)N2[C@@H]3C[C@@H]3C[C@H]2C(=O)NCCOC(F)(F)C(F)(F)F)c2ccc(OCc3ncccn3)cc12` [Example 16, (1R,3S,5R)-2-{2-[3-Acetyl-5-(pyrimidin-2-ylmethoxy)-indazol-1-yl]-acetyl}-2-aza-bicyclo[3.1.0]hexane-3-carboxylic acid (2-penta fluoroethyloxy-ethyl)-amide], 0.152 µM; for `CC[C@@H](C)NC(=O)[C@@H]1C[C@H]2C[C@H]2N1C(=O)Cn1nc(C(C)=O)c2cc(OCc3ncccn3)ccc21` [Example 17, (1R,3S,5R)-2-{2-[3-Acetyl-5-(pyrimidin-2-ylmethoxy)-indazol-1-yl]-acetyl}-2-aza-bicyclo[3.1.0]hexane-3-carboxylic acid ((R)-sec-butyl)-amide], 0.333 µM.

For `CCNC(=O)[C@@H]1C[C@H]2C[C@H]2N1C(=O)Cn1nc(C(N)=O)c2cc(OCc3ncccn3)ccc21` [Example 18, 1-[2-((1R,3S,5R)-3-Ethylcarbamoyl-2-aza-bicyclo[3.1.0]hex-2-yl)-2-oxo-ethyl]-5-(pyrimidin-2-ylmethoxy)-1H-indazole-3-carboxylic acid amide], the half-maximal inhibitory concentration (IC50) is 2.89 µM. For `CC[C@H](C)NC(=O)[C@@H]1C[C@H]2C[C@H]2N1C(=O)Cn1nc(C(C)=O)c2cc(OCc3ncccn3)ccc21` [Example 19, (1R,3S,5R)-2-{2-[3-Acetyl-5-(pyrimidin-2-ylmethoxy)-indazol-1-yl]-acetyl}-2-aza-bicyclo[3.1.0]hexane-3-carboxylic acid ((S)-sec-butyl)-amide] the value was 0.929 µM.
